Laboratory results: patent publication US12446583B2, “Methods of pest control in soybean” (SYNGENTA CROP PROTECTION AG, priority 2012, dated 2025)

Tested on: Euschistus heros
Test: Euschistus heros (Neotropical Brown Stink Bug) contact/feeding activity on sprayed soybean plants
Type: in vivo
Conditions: for mortality at 50 ppm: 120 h, read-out: control (mortality and growth effects)
Experimental: Euschistus heros (Neotropical Brown Stink Bug) (Contact/Feeding Activity)
2 week old soybean plants are sprayed in a turn table spray chamber with the diluted spray solutions. After drying, 2 soybean seeds are added and plants are infested with 10 N-2 nymphs of the neotropical brown stink bug Euschistus heros in plastic test boxes. Boxes are incubated in a climate chamber at 25° C. and 60% RH. Evaluation is done 5 days after infestation on mortality and growth effects.
Compounds are tested according to the above method.

SMILES	Control/% (application rate 0.8 ppm) [%]	Control/% (application rate 3 ppm) [%]	Control/% (application rate 12.5 ppm) [%]	mortality at 50 ppm [%]
Cc1cc(C2=NOC(c3cc(Cl)cc(Cl)c3)(C(F)(F)F)C2)ccc1C(=O)N[C@@H]1CON(CC(F)(F)F)C1=O (stereo partly shown) [Compound of the invention]	15	85	100	–
CCN1OCC(NC(=O)c2ccc(C3=NOC(c4cc(Cl)c(Cl)c(Cl)c4)(C(F)(F)F)C3)cc2Cl)C1=O (stereo not shown) [Compound A1]	–	–	–	≥ 80
CCN1OCC(NC(=O)c2ccc(C3=NOC(c4cc(Cl)cc(Cl)c4)(C(F)(F)F)C3)cc2C)C1=O (stereo not shown) [Compound A17]	–	–	–	≥ 80
CCN1OCC(NC(=O)c2ccc(C3=NOC(c4cc(Cl)cc(Cl)c4)(C(F)(F)F)C3)cc2Br)C1=O (stereo not shown) [Compound A2]	–	–	–	≥ 80
Cc1cc(C2=NOC(c3cc(Cl)cc(Cl)c3)(C(F)(F)F)C2)ccc1C(=O)NC1CON(C)C1=O (stereo not shown) [Compound A15]	–	–	–	≥ 80
CCN1OCC(NC(=O)c2ccc(C3=NOC(c4cc(Cl)c(Cl)c(Cl)c4)(C(F)(F)F)C3)cc2Br)C1=O (stereo not shown) [Compound A3]	–	–	–	≥ 80
CCN1OCC(NC(=O)c2ccc(C3=NOC(c4cc(Cl)cc(Cl)c4)(C(F)(F)F)C3)cc2C(F)(F)F)C1=O (stereo not shown) [Compound A4]	–	–	–	≥ 80
Cc1cc(C2=NOC(c3cc(Cl)cc(Cl)c3)(C(F)(F)F)C2)ccc1C(=O)N[C@@H]1CON(Cc2ccccc2)C1=O (stereo partly shown) [Reference compound, reference compound]	0	35	90	–
CCN1OCC(NC(=O)c2ccc(C3=NOC(c4cc(Cl)c(Cl)c(Cl)c4)(C(F)(F)F)C3)cc2C(F)(F)F)C1=O (stereo not shown) [Compound A5]	–	–	–	≥ 80
